Results: patent publication US20250213533A1 (GH RESEARCH IRELAND LIMITED, priority 2022, published 2025)

How the values were obtained:
[1] = tested on: Salmonella typhimurium (TA98, TA100, TA1535 and TA1537); test: Bacterial mutation test, histidine-requiring strains; type: cell-based; settings: up to 5000 μg/plate, absence and presence of rat liver S-9
Experimental: These conditions included treatments at concentrations up to 5000 μg/plate (the maximum recommended concentration according to current regulatory guidelines), in the absence and in the presence of a rat liver metabolic activation system (S-9).

5-HT1A receptors = molecular target: T1, 5-HT1A receptors (Homo sapiens, UniProt P08908); test: Radioligand binding ([3H]8-OH-DPAT) to 5-HT1A receptors in post-mortem human hippocampus membranes
T1 construct: 5-HT1A and 5-HT2A receptors in post-mortem human brain tissue from the hippocampus and frontal cortex, respectively; tissue Edinburgh Sudden Death Brain Bank; host or cells: post-mortem human hippocampus membranes
T1 sequence (P08908 1-422): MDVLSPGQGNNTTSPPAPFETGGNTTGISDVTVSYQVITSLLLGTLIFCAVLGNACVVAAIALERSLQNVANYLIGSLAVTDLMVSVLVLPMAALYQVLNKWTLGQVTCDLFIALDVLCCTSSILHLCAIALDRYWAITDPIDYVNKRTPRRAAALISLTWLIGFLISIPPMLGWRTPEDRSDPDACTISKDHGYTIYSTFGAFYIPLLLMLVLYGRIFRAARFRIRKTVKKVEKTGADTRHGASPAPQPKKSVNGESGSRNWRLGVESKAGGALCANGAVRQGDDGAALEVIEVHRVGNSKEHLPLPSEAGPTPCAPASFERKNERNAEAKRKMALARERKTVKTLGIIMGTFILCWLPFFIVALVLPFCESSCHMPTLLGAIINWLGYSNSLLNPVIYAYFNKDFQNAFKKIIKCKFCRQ

5-HT2A receptors = molecular target: T2, 5-HT2A receptors (Homo sapiens, UniProt P28223); test: Radioligand binding ([3H]MDL-100,907) to 5-HT2A receptors in post-mortem human frontal cortex membranes
T2 construct: 5-HT1A and 5-HT2A receptors in post-mortem human brain tissue from the hippocampus and frontal cortex, respectively; tissue Edinburgh Sudden Death Brain Bank; host or cells: post-mortem human frontal cortex membranes
T2 sequence (P28223 whole entry): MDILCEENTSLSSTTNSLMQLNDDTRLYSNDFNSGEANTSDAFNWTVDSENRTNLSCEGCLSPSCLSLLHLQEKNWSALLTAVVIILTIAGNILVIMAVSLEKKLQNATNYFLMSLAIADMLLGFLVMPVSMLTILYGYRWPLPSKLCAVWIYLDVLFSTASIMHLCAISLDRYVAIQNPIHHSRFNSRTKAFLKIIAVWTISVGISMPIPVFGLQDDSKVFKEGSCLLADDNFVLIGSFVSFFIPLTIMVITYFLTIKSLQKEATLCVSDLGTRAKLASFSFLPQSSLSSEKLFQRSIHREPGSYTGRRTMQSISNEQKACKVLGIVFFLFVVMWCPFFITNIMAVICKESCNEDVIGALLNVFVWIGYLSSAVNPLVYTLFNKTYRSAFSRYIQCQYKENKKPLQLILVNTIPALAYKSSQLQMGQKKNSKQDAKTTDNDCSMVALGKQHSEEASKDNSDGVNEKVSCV

Compound: COc1ccc2[nH]cc(CCN(C)C)c2c1 [5-MeO-DMT]
- induction of mutation [1]: did not induce mutation
- affinity for 5-HT1A receptors (in words) (5-HT1A receptors): high affinity
- affinity for 5-HT2A receptors (in words) (5-HT2A receptors): comparatively weak affinity
